US8895302B2, “Directed differentiation of primate pluripotent stem cells into functional basal forebrain cholinergic neurons (BFCNs) and medium spiny gabaergic projection neurons” (Wisconsin Alumni Research Foundation, priority 2010, dated 2014)

Legend:
[1] = tested on: striatum; experiment: Unilateral QA-induced striatal lesion; format: in vivo, SCID mice
Experimental: Twenty-four male SCID mice (10 weeks of age) were anesthetized with 1-2% isoflurane mixed in oxygen, and received stereotaxic injection of 2 μl 0.1M quinolinic acid (QA, P63204; Sigma, in saline with 0.2 mg/ml ascorbic acid) in the right striatum at the coordinates (anterior-posterior (AP)=−0.7 mm, lateral (L)=+1.7 mm, vertical (V)=−3.2 mm) to create the unilateral lesion (Hansson et al., 1999).
To assess the function of in vitro produced human medium spiny GABA projection neurons, we created a unilateral QA-induced striatal lesion model in immune deficient SCID mice (Sanberg et al., 1989; Reynolds et al., 2006). Four weeks post injection of QA, majority of neurons, as labeled by NeuN, including FoxP2 and DARPP32 expressing GABA projection neurons in the striatum were lost, resulting in a smaller striatum in the lesion side as compared to the non-lesion side. Accompanying the loss of neurons, there was a significant increased level of GFAP expression in astrocytes.

[2] = tested on: hESC-derived primitive neural stem cells; experiment: RT-qPCR of dorsal/ventral transcription factors in patterned neural stem cells; format: cell-based, human; settings: SHH 200 or 0.65 uM of purmorphamine, day 25
Experimental: (§1) The procedure for differentiating hESCs to neuroectodermal cells was the same as described (Li et al., 2005; Zhang et al., 2001). hESCs were differentiated to Pax6-expressing primitive neural stem cells for 10-12 days in a neural induction medium consisting of DMEM/F12, N2 supplement and non-essential amino acids (Pankratz et al., 2007; Zhang et al., 2001). The primitive neural stem cells were then treated with SHH (50-1000 ng/ml) or its small molecule agonist purmorphamine (0.1-1.5 uM, Calbiochem, San Diego, Calif., USA) from day 12 to day 26 to specify ventral progenitors. During this period, neural stem cells grew rapidly and formed neural tube-like rosettes, which were gently blown off at day 15-17 and grown in suspension under the same medium. For neuronal differentiation, neural progenitor clusters were dissociated with Accutase at 37° C. for 5 minutes and plated onto ornithine/laminin-coated coverslips at day 26 in Neurobasal medium.
Total RNA was extracted using Trizol reagent (Invitrogen), and cDNA was reverse-transcribed using the SuperScript III First-Strand (Invitrogen). Real-time PCR was performed using the Bio-Rad MyiQ real-time PCR detection system as described (Du et al., 2009).
Basal forebrain cholinergic neurons (BFCNs) are differentiated from progenitors in the MGE and POa/AEP domains that express Nkx2.1 (Wilson and Rubenstein, 2000; Zhao et al., 2003). […]

[3] = tested on: hESC-derived primitive neural stem cells; experiment: Patterning of hESC-derived primitive neural stem cells to ventral telencephalic progenitors (immunocytochemistry, FACS, Western blotting); format: cell-based, human
Experimental: as §1
Immunocytochemical staining on coverslip cultures and free-floating brain sections was performed as previously described (Li et al., 2005; Yang et al., 2008). The images were visualized using a Nikon TE600 fluorescence microscope (Nikon Instruments, Melville, N.Y., USA) or a Nikon C1 laser-scanning confocal microscope.
Protein samples were collected at day 25 after differentiation. Western blot analysis was performed as described (Li et al., 2009). Proteins (25 μg) were separated by 10% acrylamide gel and blotted with antibodies against Nkx2.1 (1:2,000, Mouse IgG, Chemicon & Millipore), Pax6 (1:4,000, Rabbit IgG, Covance), and β-actin (1:4,000, Mouse IgG, Sigma).
To quantify the differentiation efficiency of forebrain progenitors, neural progenitor spheres were dissociated into single cells and quantified by fluorescent activated cell sorting (FACS) (LaVaute et al., 2009). For quantifying differentiated cholinergic neurons, the neural progenitor spheres were digested with Accutase (Innovation Cell Technology) into small clusters and plated on coverslips for immunostaining as previous described (Li et al., 2005; Hu et al., 2009). Optical fields of cultures were randomly selected, and the neuronal cells and total cells (Hoechst stained) were counted using a Metamorph software. All the experiments were triplicated and the results were reproduced in two different cell lines (H1 and H9). For statistical analysis, 2-side t-test was used.
hESCs were first differentiated to Pax6-expressing pNSCs in a chemically defined medium as previously described (Johnson et al., 2007; Li et al., 2005; Zhang et al., 2001). We first determined the time course of SHH action by applying SHH for a week at day 10, 13, and 17 and by quantifying cells that express Nkx2.1, an MGE transcription factor.
Basal forebrain cholinergic neurons (BFCNs) are differentiated from progenitors in the MGE and POa/AEP domains that express Nkx2.1 (Wilson and Rubenstein, 2000; Zhao et al., 2003). […] In contrast, the expression of dorsal telencephalic transcription factors, Pax6 and Emx1, was decreased (FIG. 1B). Immunostaining and Western blotting analyses confirmed that Nkx2.1-expressing cell population increased progressively, with 97±1.3% of the cells being Nkx2.1 positive in the presence of 1000 ng/ml of SHH, whereas the population of Pax6 positive dorsal progenitors decreased, to less than 0.01% under 1000 ng/mlof SHH (FIG. 1C, D, E).

[4] = tested on: hESC-derived cholinergic neurons; experiment: Whole-cell patch clamp, spontaneous synaptic currents of hESC-derived BFCNs; format: cell-based, human; settings: CNQX 20 μM in bath, BFCNs differentiated 8-10 weeks
Experimental: Whole-cell patch-clamp recordings were made from hESC-derived cholinergic neurons at 8-10 weeks age as previously reported (Johnson et al., 2007). Briefly, the neurons were held at −70 mV to record the spontaneous release and Na+/K+ channel activities. For action potential recording, the cells were held at 0 pA with current-clamp model and the steps of currents from +[…] were injected into cells by the holding electrode. The bath solution consisted of 127 mM NaCl, 1.2 mM KH2PO4, 1.9 mM KCl, 26 mM NaHCO3, 2.2 mM CaCl2, 1.4 mM MgSO4, 10 mM glucose, 290 mM mOsm and 95% O2/5% CO2. Recording pipettes were filled with an intracellular recording solution consisting of 20 mM KCl, 121 mM K^+-gluconate, 10 mM Na^+-HEPES, 10 mM BAPTA, 4 mM Mg2^+-ATP pH 7.2 and 290 mOm. Bicuculline (20 μM; Sigma) or 6-cyano-7-nitroquinoxiline-2,3-dione (CNQX, 20 μM; RBI) was applied to the bath solution to distinguish inhibitory (GABAergic) and excitatory (glutamatergic) response. Biocytin (1%, Sigma) was injected into cells after recording to identify the neuronal identity. An Olympus BX51WI microscope was used to visualize neurons. […] Data were analyzed with pClamp 9.0 (Axon instruments). […]
To determine the functionality of the hESC-derived BFCNs, we first measured the electrophysiological properties of the BFCNs that were differentiated for 8-10 weeks by whole cell patch clamping recording (FIG. 3). […]

[5] = SHH 200 ng/ml or purmorphamine 0.65 uM, day 30

O=C(O)c1cccnc1C(=O)O [QA, quinolinic acid]
stride length on the right limbs versus control animals that received aCSF (Treadscan) ([1]; lesioned mice): longer stride length | behavioural outcome of unilateral striatal lesion ([1]; rotarod, open field, Treadscan): locomotion deficits typical of HD

c1ccc2c(Oc3nc(Nc4ccc(N5CCOCC5)cc4)c4ncn(C5CCCCC5)c4n3)cccc2c1 [purmorphamine]
Gsh2 mRNA versus control group (RT-qPCR) [2]: upregulated expression | Pax6 mRNA versus control group (RT-qPCR) [2]: downregulation | GABA interneuron progenitor marker Nkx2.1 (immunostaining) [3, 5]: minimal expression | cortical marker Pax6 (immunostaining) [3, 5]: decreased expression | striatal GABA neuron progenitor markers Meis2, Mash1 and Otx2 (immunostaining) [3, 5]: increased expression | purmorphamine concentration equivalent to SHH at 200 ng/ml for GABAergic progenitors ([3]; pNSCs treated at day 10-12): ~0.65 µM | purmorphamine concentration equivalent to SHH at 500 ng/ml for cholinergic progenitors ([3]; pNSCs treated at day 10-12): ~1 µM

N#Cc1cc2[nH]c(=O)c(=O)[nH]c2cc1[N+](=O)[O-] [CNQX, 6-cyano-7-nitroquinoxiline-2,3-dione]
spontaneous synaptic activity [4]: partially blocked
